Reference: the CheMixHub ionic liquid set
± gives the uncertainty stated by the source.

Test: xn = mol fraction of the nth substance listed

CCCC[n+]1ccn(C)c1.N#C[S-] + CCCCO
101 kPa
Settings | viscosity [mPa·s]
298.15 K, x2 = 0.5596 | 11.2 ± 0.1
298.15 K, x2 = 0.6222 | 9.23 ± 0.04
298.15 K, x2 = 0.79 | 5.28 ± 0.02
298.15 K, x2 = 0.9738 | 2.9 ± 0.01
308.15 K, x2 = 0.6834 | 5.8 ± 0.02
318.15 K, x2 = 0.0911 | 19 ± 0.2
318.15 K, x2 = 0.5596 | 6.55 ± 0.03
318.15 K, x2 = 0.6222 | 5.5 ± 0.03
318.15 K, x2 = 0.6834 | 4.59 ± 0.02
318.15 K, x2 = 0.9738 | 1.81 ± 0.01
328.15 K, x2 = 0.4552 | 6.86 ± 0.04
328.15 K, x2 = 0.6834 | 3.72 ± 0.02
338.15 K, x2 = 0.5596 | 4.19 ± 0.02
338.15 K, x2 = 0.6222 | 3.6 ± 0.02
348.15 K, x2 = 0.3317 | 5.78 ± 0.04
348.15 K, x2 = 0.8975 | 1.34 ± 0.01
348.15 K, x2 = 0.9738 | 1 ± 0.01

CC[n+]1ccn(C)c1.CS(=O)(=O)[O-] + CC[n+]1ccn(C)c1.N#C[S-] + O
viscosity [mPa·s], 100 kPa
Settings | 298.15 K | 323.15 K
x2 = 0, x1 = 1 | 166.9 ± 4.2 | 46.66 ± 0.95
x2 = 0.03875, x1 = 0.1179 | 5.47 ± 0.11 | 2.895 ± 0.06
x2 = 0.0437, x1 = 0.133 | 6.29 ± 0.13 | 3.29 ± 0.07
x2 = 0.04778, x1 = 0.1454 | 6.96 ± 0.14 | 3.598 ± 0.074
x2 = 0.04973, x1 = 0.05117 | 2.902 ± 0.06 | 1.645 ± 0.034
x2 = 0.07374, x1 = 0.07586 | 4.308 ± 0.088 | 2.366 ± 0.049
x2 = 0.08472, x1 = 0.2579 | 14.08 ± 0.29 | 6.86 ± 0.14
x2 = 0.09552, x1 = 0.09828 | 5.65 ± 0.12 | 3.039 ± 0.062
x2 = 0.132, x1 = 0.4018 | 27.86 ± 0.57 | 12.33 ± 0.25
x2 = 0.1688, x1 = 0.1737 | 10.72 ± 0.22 | 5.46 ± 0.11
x2 = 0.1857, x1 = 0.5652 | 56.4 ± 1.1 | 21.34 ± 0.43
x2 = 0.1882, x1 = 0.06242 | 5.9 ± 0.12 | 3.31 ± 0.07
x2 = 0.2473, x1 = 0.7527 | 102.6 ± 2.3 | 32.99 ± 0.67
x2 = 0.2641, x1 = 0.2717 | 19.62 ± 0.4 | 9.31 ± 0.19
x2 = 0.3704, x1 = 0.3811 | 35.52 ± 0.72 | 15.09 ± 0.31
x2 = 0.3722, x1 = 0.1235 | 12.81 ± 0.26 | 6.61 ± 0.13
x2 = 0.4929, x1 = 0.5071 | 63.5 ± 1.3 | 23.49 ± 0.48
x2 = 0.5588, x1 = 0.1854 | 23.25 ± 0.47 | 10.99 ± 0.22
x2 = 0.7509, x1 = 0.2491 | 38.43 ± 0.78 | 16.41 ± 0.33

CC[N+](CC)(CC)CC.[Cl-] + Oc1ccccc1
viscosity [mPa·s], 101 kPa
Settings | 303.15 K | 323.15 K
x1 = 0.2 | 34.1 ± 1.1 | 14.34 ± 0.47
x1 = 0.25 | 38.6 ± 1.3 | –

CC[n+]1ccn(C)c1C.O=S(=O)([N-]S(=O)(=O)C(F)(F)F)C(F)(F)F + CC1COC(=O)O1
101.3 kPa
Settings | viscosity [mPa·s]
303.15 K, x1 = 0.203 | 5.35 ± 0.11
303.15 K, x1 = 0.5825 | 20.07 ± 0.42
313.15 K, x1 = 0.7004 | 19.96 ± 0.42
318.15 K, x1 = 0.3994 | 7.33 ± 0.15
318.15 K, x1 = 0.5149 | 10.82 ± 0.23
318.15 K, x1 = 0.8032 | 21.86 ± 0.46
323.15 K, x1 = 0.1025 | 2.411 ± 0.051
323.15 K, x1 = 0.5149 | 9.41 ± 0.2
323.15 K, x1 = 0.7004 | 15.48 ± 0.32
328.15 K, x1 = 0.203 | 3.199 ± 0.067
328.15 K, x1 = 0.8032 | 16.86 ± 0.35
333.15 K, x1 = 0.3994 | 5.29 ± 0.11
338.15 K, x1 = 0.3078 | 3.726 ± 0.078
343.15 K, x1 = 0.3994 | 4.376 ± 0.092
343.15 K, x1 = 0.5825 | 6.93 ± 0.15
343.15 K, x1 = 0.8903 | 13.67 ± 0.29
348.15 K, x1 = 0.1025 | 1.651 ± 0.035
348.15 K, x1 = 0.7004 | 8.13 ± 0.17

CC[N+](CC)(CC)CC.[Cl-] + CC1(C)CC(O)CC(C)(C)N1[O] + O
Settings | electrical conductivity [S/m]
323.15 K, 100 kPa, frequency 0.001 MHz, x2 = 0, x1 = 0.2 | 4.1 ± 0.2

CC(=O)[O-].CC[n+]1ccn(C)c1 + CCS(=O)(=O)[O-].[NH4+]
101 kPa, x2 = 0
Settings | electrical conductivity [S/m] | viscosity [mPa·s]
303.15 K | 0.374 ± 0.0075 | 93.6 ± 6.1
318.15 K | 0.76 ± 0.015 | 44.2 ± 2.9

CCCCCCCCCCCC[n+]1ccn(C)c1.[Br-] + O
298.15 K, 100 kPa, frequency 0.001 MHz
Settings | electrical conductivity [S/m]
x1 = 3.604e-05 | 0.018 ± 0.018
x1 = 7.207e-05 | 0.036 ± 0.019
x1 = 9.009e-05 | 0.045 ± 0.018
x1 = 0.0001081 | 0.054 ± 0.018
x1 = 0.0001261 | 0.065 ± 0.018
x1 = 0.0001441 | 0.072 ± 0.014
x1 = 0.0001622 | 0.081 ± 0.014
x1 = 0.0001802 | 0.089 ± 0.01
x1 = 0.0002522 | 0.101 ± 0.0055
x1 = 0.0003242 | 0.111 ± 0.005
